{"source": "paper PMC10667816", "about": "“A Cell‐Penetrant Peptide Disrupting the Transcription Factor CP2c Complexes Induces Cancer‐Specific Synthetic Lethality” (Advanced Science, 2023)", "key": {"[1]": {"test": "Storage stability of peptide activity", "format": "physicochemical", "conditions": "stored in powder or solution form in a deep freezer"}, "[2]": {"test": "Nanoparticle formation in solution (DLS)", "format": "physicochemical", "conditions": "DLS in saline, 25 °C, each sample analyzed five times", "procedure": "For determining the dimensions and nanoparticle formation of the peptides in solution, DLS analysis was performed using the Scatteroscope I nanoparticle size analyzer (K‐One, SOS1). Saline served as the negative control, and all experiments were conducted at a constant temperature of 25 °C. Each sample was analyzed five times, and the resulting data were graphically presented, incorporating all five profiles obtained from the experiments. The purity and dimer formation of the peptides were analyzed using HPLC and LC‐MS. HPLC analysis was carried out using a Shimadzu HPLC LabSolution equipped with a pump, an autosampler, a column oven, and a UV–vis detector. Chromatographic separation was performed on a Shimadzu C18 analytical column at 35 °C, with an injection volume of 20 µL (0.5 mg mL^−1). The mobile phases consisted of 0.05% trifluoroacetic acid (TFA) in water (A) and 0.05% TFA in acetonitrile (B). The flow rate was maintained at 1 mL min^−1, and the gradient program was as follows: 20–80% B over 30 min. Ionization was achieved using electrospray ionization (ESI) in positive mode with selected reaction monitoring (SRM). Mass spectrometry analysis was performed with an ESI source in the positive‐ionization mode."}, "[3]": {"tested_on": "Hep3B", "test": "Hep3B CDX mouse model", "format": "in vivo", "procedure": "Animal experiments were conducted in accordance with ethical guidelines, and all protocols were approved by the Institutional Animal Care and Use Committee under Hanyang University (approval numbers, 2014‐0016A, 2018‐0049A, 2018‐0207A, and 2019‐0169A), Chung‐Ang University (approval number, 2015‐00022), Chungbuk University (approval number, CBNUA‐1072‐17‐02), and Konkuk University (approval number, KU17130). To establish xenograft mice models, Hep3B, A431, U343, and PC9 cells were subcutaneously injected into the flank of Balb/c nude mice. For the MDA‐MB‐231 (LM1) cell line, it was implanted into the mammary fat pad of immunodeficient mice (NPG mice). Once tumors were successfully established, the animals were randomly divided into a control (vehicle) group and an experimental (drug) group. When the tumor volume reached 100 cubic millimeters, either saline or an appropriate concentration of drugs was administrated into mice via tail vein every 3 or 5 days for appropriate duration. Tumor volume was calculated using the formula of length × width^2)/2. To generate an orthotopic liver cancer mice model, 75 mg kg^−1 (mpk) of DEN was intraperitoneally injected weekly for 3 weeks into C57BL/6 mice, followed by 100 mpk of DEN weekly for the subsequent 3 weeks. After 37 weeks of liver cancer induction, mice received either saline or an appropriate concentration of drugs via the tail vein every 5 days for the designated duration. The in vivo administration amount was determined based on the concentration of ACP52C confirmed at the cellular level, which was 2 µM. Assuming an average mouse weight of 30 grams and considering that ≈5.8% of body weight constitutes blood volume,^[ [49] ^] it was calculated that the blood concentration of ACP52C should be ten times the GI50 concentration in cell culture conditions. […] For ACP52C derivatives, the amount was adjusted to ensure a similar molar quantity of peptide injection, taking their molecular weights into account. For instance, in the case of ACP52CGK, ≈1.67 times the quantity was used compared to ACP52C to achieve an equivalent molar quantity. At the time of sacrifice, major organs and tumors were removed and weighed, and blood was extracted. For histological analysis, major organs and tumors of mice were immediately fixed in 10% formalin neutral buffer solution, dehydrated through a graded series of ethanol treatments, treated with xylene, paraffin embedded, and cut into 4 µm sections. Hematoxylin and eosin (H&E)‐stained tissue sections were analyzed and photographed, and the representative histological images were recorded. Liver nodules in the DEN orthotopic liver cancer model were estimated by measuring the ratio of tumor areas over entire liver tissues in the tissue section using an Image J (version 1.51) software at 40× magnification. Complete blood count (CBC) analysis was conducted using a Hematology analyzer (scil Vet ABC) from the extracted blood."}, "[4]": {"tested_on": "murine erythroleukemia (MEL) cells", "test": "Erythroid differentiation of MEL cells", "format": "cell-based", "conditions": "HMBA‐induced MEL cells, supplementation to the culture", "procedure": "Information of the cell lines is listed in Table S1 (Supporting Information), including their origin and culture conditions. All cell lines were cultured at 37 °C, 5% CO2 incubator. MDA‐MB‐231 (LM1), HepG2, Hep3B, and HCT116 cell lines were authenticated with short tandem repeat markers based on ATCC information. All cell lines tested negative for mycoplasma contamination. Transient downregulation of the gene of interest was conducted by siRNA transfection using Lipofectamine 2000 (Thermo Fisher, 11668019) according to the manufacturer's instructions. Information about siRNAs is provided in Table S2 (Supporting Information). Stable cell lines were established by transfecting cells using Effectene reagent (Qiagen, 301425), followed by selection of cell clones in the presence of 1 µg mL^−1 puromycin (Sigma–Aldrich, P8833). The establishment of cell lines was confirmed by WB or RT‐qPCR. For doxycycline‐inducible gene expression regulation, cell lines were incubated in the presence of 1 µg mL^−1 doxycycline (Sigma–Aldrich, D9891) for 2–3 days. To promote sphere formation of the cell lines, each well of the tissue culture dish was coated with 10% poly 2‐hydroxyethyl methacrylate (polyHEMA). An appropriate number of cells per well were seeded in serum‐free DMEM/F12 (HyClone, SH30023.01) supplemented with B27, 20 ng mL^−1 bFGF, and 20 ng mL^−1 EGF. For erythroid terminal differentiation experiments, differentiation was assessed by hemoglobin staining using a 0.2% (w/v) tetramethylbenzidine solution (Sigma–Aldrich, T0440) in 0.6% hydrogen peroxide, 3% acetic acid for 10 min in dark condition. Benzidine‐positive or negative cell numbers were counted under the inverted microscope BX50 (Olympus) at 200 × magnification. […] After each synchronization, cells were fixed at 4‐h intervals for 24 h with ACP52C treatment, and the cell cycle was analyzed by Propidium Iodide (PI) staining or intracellular protein was analyzed by immunofluorescence. […] This development period was repeated four times for one round, after which GI50 concentrations were re‐assessed in each resistant cell line. […]"}, "[5]": {"conditions": "administered at five‐day intervals"}, "[6]": {"conditions": "intravenous injection at three‐day intervals, Sorafenib orally once daily as positive control"}}, "note": "“Also recorded” adds a separate entry of the source. *1 amine or outer side, *2 acyl side, *3 side chain or, on linkers, in order; H or OH if unused. Where a SMILES comes first, the peptide text is derived from it. Side-chain parts run from the residue outwards. The star is where a group is joined. γGlu = O=C(O)[C@H](CCC(=O)[*:2])N[*:1]; Palmitoyl = CCCCCCCCCCCCCCCC(=O)*"}
{"smiles": "CC(=O)N[C@@H](CC(N)=O)C(=O)N[C@@H](Cc1ccc(O)cc1)C(=O)N1CCC[C@H]1C(=O)N[C@@H](CCC(N)=O)C(=O)N[C@@H](CCCNC(=N)N)C(=O)N1CCC[C@H]1C(=O)N[C@@H](CS)C(=O)N[C@@H](CCCNC(=N)N)C(=O)NCC(=O)N[C@@H](CC(=O)O)C(=O)N[C@@H](CCCCN)C(=O)NCC(=O)N1CCC[C@H]1C(=O)N[C@@H](CC(=O)O)C(=O)N[C@@H](CS)C(N)=O", "note": "[ACP52C] (Ac-NYPQRPCRGDKGPDC-NH2)", "values": [{"measurement": "loss of activity on storage", "setting": "[1]", "result": "gradually lose their activity over one year"}, {"measurement": "nanoparticle formation", "setting": "[2]", "result": "majority of ACP52C exists in the form of nanoparticles in saline"}, {"measurement": "anti‐tumor activity", "setting": "[3]; [5]", "result": "reduced anti‐tumor activity compared to the three‐day interval administration"}, {"measurement": "anti‐tumor activity", "setting": "[3]; [6]", "result": "superior anti‐tumor activity compared to Sorafenib"}, {"measurement": "inhibition of erythroid differentiation", "setting": "[4]", "result": "inhibition of erythroid differentiation"}]}
{"smiles": "CCOc1ccccc1C1CC(=O)Nc2cc3c(cc21)OCO3", "note": "(stereo not shown) [FQI1, Factor Quinolinone Inhibitor 1, reference compound]", "values": [{"measurement": "inhibition of erythroid differentiation", "setting": "[4]", "result": "limited inhibitory effects on MEL cell differentiation in vitro"}]}
{"smiles": "CCCCCCCCCCCCCCCC(=O)N[C@@H](CCC(=O)NCCCC[C@H](NC(=O)CNC(=O)CNC(=O)[C@@H]1CCCN1C(=O)[C@H](CCCNC(=N)N)NC(=O)[C@H](CCC(N)=O)NC(=O)[C@@H]1CCCN1C(=O)[C@H](Cc1ccc(O)cc1)NC(=O)[C@H](CC(N)=O)NC(C)=O)C(=O)NCC(=O)NCC(=O)N[C@@H](CS)C(=O)N[C@@H](CCCNC(=N)N)C(=O)NCC(=O)N[C@@H](CC(=O)O)C(=O)N[C@@H](CCCCN)C(=O)NCC(=O)N1CCC[C@H]1C(=O)N[C@@H](CC(=O)O)C(=O)N[C@@H](CS)C(N)=O)C(=O)O", "note": "[ACP52CGK] (Ac-NYPQRPGGK([γGlu-Palmitoyl])GGCRGDKGPDC-NH2)", "values": [{"measurement": "loss of activity on storage", "setting": "[1]", "result": "gradually lose their activity over one year"}, {"measurement": "nanoparticle formation", "setting": "[2]", "result": "significant reduction in nanoparticle formation"}, {"measurement": "anti‐tumor activity", "setting": "[3]; [5]", "result": "maintained its activity; also recorded: remarkable anti‐tumor efficacy"}, {"measurement": "anti‐tumor activity", "setting": "[3]; [6]", "result": "activity similar to that of ACP52C"}]}
